In article PMC10133546, “Simultaneous determination of multiple components in rat plasma by UHPLC-sMRM for pharmacokinetic studies after oral administration of Qingjin Yiqi Granules” (Frontiers in Pharmacology, 2023):
Where two headings read alike, the source gives them in different places. Blank lines part the entries; values can stand above or below the compound they belong to.

Assays:
[1] = Stability of the working solution (4°C for 1 month); format: physicochemical
[2] = Stability of analytes in rat plasma (auto-sampler, freeze-thaw, room temperature, long-term); conditions: for Autosampler for 24 h Accuracy (%): autosampler 24 h; for Room temperature for 24 h Accuracy (%): room temperature 24 h; for Freeze thaw cycles Accuracy (%): three freeze-thaw cycles
[3] = Pharmacokinetic study in rat plasma after oral administration of QJYQ (UHPLC-sMRM); format: in vivo, Sprague-Dawley rats
Method: Exion LC AD tandem Blueline 3500 triple quadrupole mass spectrometer (AB SCIEX, Framingham, MA, United States) was used to thirty-three compounds in rat plasma. […] The whole detailed parameters of sMRM were obtained in Supplementary Table S1.
Rat plasma (100 μL) was mixed with 10% formic acid (10 μL) and vortexed for 1 min at room temperature. ISs (10 μL) and methanol/acetonitrile (1/1, v/v) (400 μL) were added and vortexed for 5 min, then centrifuged for 10 min at 14,000 rpm and 4°C. The transported supernatant was condensed to dryness under the flow of nitrogen gas. The dried residue was reconstituted with 70% methanol (100 μL) by vortex-mixing for 5 min and centrifuging at 14,000 rpm for 10 min. Last, 2 μL of the solution were injected into the UHPLC-sMRM system.
The pharmacokinetic study was approved by the Animal Ethics Committee of Tianjin University of Traditional Chinese Medicine (TCM-LAEC2021228). Ten male Sprague-Dawley rats (weight 220–240 g) was kept at the animal center of Tianjin University of Traditional Chinese Medicine (Tianjin, China). […] The sample was transferred right away following a 10 min period of centrifugation at 7000 rpm and 4°C. All plasma samples were frozen and stored at −80°C.
All the pharmacokinetic parameters were calculated using the DAS 1.0 software (Drug and Statistics 1.0, Medical College of Wannan, China). Pharmacokinetic parameters include the maximum drug concentration in plasma (Cmax), the time to achieve maximum drug concentration (Tmax), the area under the plasma concentration-time curve (AUC), elimination half-life (T1/2), and mean residence time (MRT). The pharmacokinetic parameters were computed using the non-compartmental model. All data are expressed as mean ± standard deviation (SD). GraphPad Prism 8.0 (GraphPad Software Inc., La Jolla, CA, United States) software was used to draw the drug-time curve.

[4] = rat plasma, oral QJYQ 3.15 g/kg, n = 8, mean ± SD
[5] = male, Sprague-Dawley, rat, in vivo, po, 3.15 g/kg

Working solution Accuracy (%) ([1]; concentration 1.56 ng/mL): 98.0%
Working solution Accuracy (%) ([1]; concentration 12.5 ng/mL): 98.9%
Working solution Accuracy (%) ([1]; concentration 100 ng/mL): 85.8%
Working solution Accuracy (%) ([1]; concentration 500 ng/mL): 100.0%
Autosampler for 24 h Accuracy (%) ([2]; concentration 1.56 ng/mL): 82.8%
Autosampler for 24 h Accuracy (%) ([2]; concentration 12.5 ng/mL): 111.0%
Autosampler for 24 h Accuracy (%) ([2]; concentration 100 ng/mL): 102.0%
Autosampler for 24 h Accuracy (%) ([2]; concentration 500 ng/mL): 90.5%
Room temperature for 24 h Accuracy (%) ([2]; concentration 1.56 ng/mL): 98.0%
Room temperature for 24 h Accuracy (%) ([2]; concentration 12.5 ng/mL): 94.1%
Room temperature for 24 h Accuracy (%) ([2]; concentration 100 ng/mL): 89.8%
Room temperature for 24 h Accuracy (%) ([2]; concentration 500 ng/mL): 106.0%
Freeze thaw cycles Accuracy (%) ([2]; concentration 1.56 ng/mL): 86.4%
Freeze thaw cycles Accuracy (%) ([2]; concentration 12.5 ng/mL): 89.6%
Freeze thaw cycles Accuracy (%) ([2]; concentration 500 ng/mL): 91.8%
−80°C for 1month Accuracy (%) ([2]; −80°C for 1 month, concentration 1.56 ng/mL): 111.0%
−80°C for 1month Accuracy (%) ([2]; −80°C for 1 month, concentration 12.5 ng/mL): 85.1%
−80°C for 1month Accuracy (%) ([2]; −80°C for 1 month, concentration 100 ng/mL): 96.0%
−80°C for 1month Accuracy (%) ([2]; −80°C for 1 month, concentration 500 ng/mL): 87.4%
Tmax ([3]; male, Sprague-Dawley, rat, plasma, po, 3.15 g/kg, rat plasma, oral QJYQ 3.15 g/kg, n = 8, mean ± SD, read-out: Tmax): 6.29 ± 0.76 h
MRT ([3]; male, Sprague-Dawley, rat plasma, oral QJYQ 3.15 g/kg, MRT type not specified, read-out: MRT): > 8 h
half-life ([3]; male, Sprague-Dawley, rat plasma, oral QJYQ 3.15 g/kg, n = 8, mean ± SD): 1.91 ± 0.09 h
AUC(0-t) ([3]; male, Sprague-Dawley, rat plasma, oral QJYQ 3.15 g/kg, n = 8, mean ± SD, read-out: AUC(0-t)): 288 ± 66.1 ng·h/mL
AUC(0-inf) ([3]; male, Sprague-Dawley, rat plasma, oral QJYQ 3.15 g/kg, n = 8, mean ± SD, read-out: AUC(0-∞)): 288 ± 66.1 ng·h/mL
MRT inf ([3]; male, Sprague-Dawley, rat plasma, oral QJYQ 3.15 g/kg, n = 8, mean ± SD, read-out: MRT (0-∞)): 8.27 ± 1.09 h
MRT last ([3]; male, Sprague-Dawley, rat plasma, oral QJYQ 3.15 g/kg, n = 8, mean ± SD, read-out: MRT(0-t)): 8.27 ± 1.09 h
Cmax [3, 4]: 38.13 ± 10.55 ng/mL
SMILES: COc1c(O)cc(O)c2c(=O)cc(-c3ccccc3)oc12 [wogonin]

Working solution Accuracy (%) ([1]; 12.5 ng/mL): 83.3%
Working solution Accuracy (%) ([1]; 50 ng/mL): 89.5%
Working solution Accuracy (%) ([1]; 100 ng/mL): 86.2%
Working solution Accuracy (%) ([1]; 500 ng/mL): 96.4%
Autosampler for 24 h Accuracy (%) ([2]; 12.5 ng/mL): 84.9%
Room temperature for 24 h Accuracy (%) ([2]; 12.5 ng/mL): 104.0%
Freeze thaw cycles Accuracy (%) ([2]; 12.5 ng/mL): 93.8%
−80°C for 1month Accuracy (%) ([2]; 12.5 ng/mL, −80°C 1 month): 89.1%
Autosampler for 24 h Accuracy (%) ([2]; 50 ng/mL): 92.5%
Room temperature for 24 h Accuracy (%) ([2]; 50 ng/mL): 88.9%
Autosampler for 24 h Accuracy (%) ([2]; 100 ng/mL): 89.7%
Room temperature for 24 h Accuracy (%) ([2]; 100 ng/mL): 91.2%
Freeze thaw cycles Accuracy (%) ([2]; 100 ng/mL): 87.8%
−80°C for 1month Accuracy (%) ([2]; 100 ng/mL, −80°C 1 month): 95.7%
Autosampler for 24 h Accuracy (%) ([2]; 500 ng/mL): 88.3%
Room temperature for 24 h Accuracy (%) ([2]; 500 ng/mL): 104.0%
Freeze thaw cycles Accuracy (%) ([2]; 500 ng/mL): 88.5%
−80°C for 1month Accuracy (%) ([2]; 500 ng/mL, −80°C 1 month): 104.0%
AUC(0-t) ([3]; rat, in vivo, po, 3.15 g/kg): 618.13 ± 161.10 ng·h/mL
AUC(0-∞) ([3]; rat, in vivo, po, 3.15 g/kg): 669.34 ± 164.70 ng·h/mL
Cmax ([3]; rat, in vivo, po, 3.15 g/kg): 135.83 ± 52.28 ng/mL
MRT (0-∞) ([3]; rat, in vivo, po, 3.15 g/kg): 7.95 ± 4.85 h
MRT(0-t) ([3]; rat, in vivo, po, 3.15 g/kg): 4.85 ± 0.77 h
T1/2 ([3]; rat, in vivo, po, 3.15 g/kg): 8.37 ± 2.80 h
Tmax ([3]; rat, in vivo, po, 3.15 g/kg): 1.37 ± 0.80 h
SMILES: COC(=O)C1=CO[C@@H](O[C@@H]2O[C@H](CO)[C@@H](O)[C@H](O)[C@H]2O)[C@H]2[C@@H]1C(=O)C[C@@H]2C [verbenalin]

SMILES: O=C1C[C@@H](c2ccc(O[C@@H]3O[C@H](CO)[C@@H](O)[C@H](O)[C@H]3O)cc2)Oc2cc(O)ccc21 [liquiritin]
Working solution Accuracy (%) ([1]; 1.56 ng/mL): 99.4%
Working solution Accuracy (%) ([1]; 12.5 ng/mL): 94.1%
Working solution Accuracy (%) ([1]; 100 ng/mL): 100.0%
Working solution Accuracy (%) ([1]; 500 ng/mL): 86.6%
Autosampler for 24 h Accuracy (%) ([2]; 1.56 ng/mL): 84.0%
Room temperature for 24 h Accuracy (%) ([2]; 1.56 ng/mL): 111.0%
Freeze thaw cycles Accuracy (%) ([2]; 1.56 ng/mL): 110.0%
Autosampler for 24 h Accuracy (%) ([2]; 12.5 ng/mL): 108.0%
Room temperature for 24 h Accuracy (%) ([2]; 12.5 ng/mL): 94.4%
−80°C for 1month Accuracy (%) ([2]; 12.5 ng/mL, −80°C 1 month): 94.1%
Autosampler for 24 h Accuracy (%) ([2]; 100 ng/mL): 94.1%
Room temperature for 24 h Accuracy (%) ([2]; 100 ng/mL): 90.6%
Freeze thaw cycles Accuracy (%) ([2]; 100 ng/mL): 85.8%
−80°C for 1month Accuracy (%) ([2]; 100 ng/mL, −80°C 1 month): 103.0%
Autosampler for 24 h Accuracy (%) ([2]; 500 ng/mL): 91.2%
Room temperature for 24 h Accuracy (%) ([2]; 500 ng/mL): 89.3%
Freeze thaw cycles Accuracy (%) ([2]; 500 ng/mL): 87.0%
−80°C for 1month Accuracy (%) ([2]; 500 ng/mL, −80°C 1 month): 108.0%
AUC(0-inf) [3, 5]: 16.4 ± 5.06 ng·h/mL
AUC(0-t) [3, 5]: 16.3 ± 5.11 ng·h/mL
Cmax [3, 5]: 7.08 ± 2.25 ng/mL
MRT inf [3, 5]: 6.8 ± 1.19 h
MRT last [3, 5]: 6.4 ± 0.98 h
Tmax ([3]; male, Sprague-Dawley, rat, in vivo, po, 3.15 g/kg, Tmax): 0.52 ± 0.1 h
T1/2 [3, 4]: 4.30 ± 3.09 h
